{"source": "patent US20250154212A1", "about": "“METHOD OF DISRUPTING MEMORY AND LIPOPEPTIDE FOR USE IN SUCH METHOD” (The Research Foundation for The State University of New York, priority 2023, published 2025)", "key": {"[1]": {"test_system": "KIBRA with novel PKCs (PKCδ, PKCε, PKCη, PKCθ)", "assay": "BiFC assay of KIBRA with novel PKCs in HEK293T cells", "type": "cell-based, human", "description": "KIBRA-PKMζ BiFC was performed as previously described (28), using pVen1-FLAG-KIBRA and pVen2-HA-PKMζ, in which PKMζ was cloned between EcoR1 and BamH1 sites. The constructs pVen1 and pVen2 encode the N-terminus (amino acids 1-154) and C-terminus (amino acids 155-238) of the Venus protein, respectively, and the Venus fragments were on the N-terminal of the fusion proteins. pVen2-HA-PKMζ[PKCι/λ-P291Q;F297S] was generated by site-directed mutagenesis using forward-cctggagAagcAAatceggatcccccggtCcctgtccgte and reverse-gacggacaggGaccgggggatccggatTTgctTctccagg primers and the QuickChange II XL Site-Directed Mutagenesis Kit (Agilent Technologies), following manufacturer's instructions. Additional pVen2-HA-PKC isoforms and pVen2-HA-CaMKIIα in the pVen2-HA vector were generated by cloning the N-terminus of the coding sequence of each kinase (table S1) to obtain an in-frame fusion at the C-terminus of the pVen2-HA. Human versions of KIBRA and kinases were used, and all PCR amplified sequences and constructs were verified by DNA sequencing.\nHEK293T cells were cultured in Dulbecco's Modified Eagle's Medium supplemented with 10% heat-inactivated fetal bovine serum, 100 U/ml penicillin, […] streptomycin, 2 mM glutamine, and 10 mM HEPES in a T75 tissue culture flask with canted neck and ventilated cap. […]"}, "[2]": {"test_system": "auditory-cued fear/threat memory in PKMζ-null mice", "assay": "Auditory-cued fear/threat conditioning, infusion into basolateral amygdala, PKMζ-null mice", "type": "in vivo, mouse", "settings": "6 nmol in 0.3 μL into each BLA, tested 1 day post-injection", "description": "Mice were 8-10 weeks old at the time of cannulation and 9-11 weeks old at the beginning of behavioral experiments. Mice were housed with cage-mates in plastic cages and provided with food and water ad libitum. Mice were maintained on a 12 h light/dark cycle (lights on at 7:00 am) and behavioral experiments began at 9:00 am.\nMice were injected intraperitoneally (1 ml/100 g body weight) with an anesthetic cocktail containing ketamine (10 mg/ml) and xylazine (2 mg/ml). Mice were provided with analgesic treatment prior to surgery (carprofen; 5 mg/ml). Guide cannulae (Plastics One, Roanoke, VA) were implanted bilaterally in the basolateral amygdala (from bregma: AP-1.7 mm; L+/−3.0 mm; DV-4.4 mm) and secured to the skull with three jeweler's screws and dental cement. Antisedan (0.66 ml/100 g body weight of 0.5 mg drug/ml solution) was given via i.p. injection after surgery to reverse the anesthesia.\nFor 7 days following surgery, mice were handled by freely exploring the experimenter's palm for 2-5 min. Mice were habituated, trained, and tested in the same conditioning box (Coulbourn Habitest, Coulboum Instruments) with differing floors and walls to produce two different contexts (Context A and Context B). […] Freezing behavior (cessation of all movement except breathing) during the tone on Test 1 and Test 2 was scored by an experimenter blind to the conditions. […]"}}}
{"smiles": "O=S(=O)(O)c1cc(O)c2c(S(=O)(=O)O)cc(S(=O)(=O)O)cc2c1", "note": "[ζ-stat, 1-naphthol-3,6,8-trisulphonic acid]", "values": [{"measurement": "effect on BiFC of KIBRA with novel PKCs", "setting": "[1]", "result": "has no effect"}, {"measurement": "auditory-cued fear/threat memory retention (% time freezing to tone)", "setting": "[2]", "result": "not in PKMζ-null mice"}]}
